According to PubChem BioAssay (NCI):
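Values below derive from 48-hour exposures of cells grown in 96-well plates, with endpoints linearly interpolated between the two concentrations bracketing the appropriate inhibition level. Definition used: TGI = concentration required for complete inhibition of growth.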

Legend:
Test in all cases: NCI anticancer screen, dose series, 48 h
A549 NSCLC = test system: A549 NSCLC
ACHN renal = test system: ACHN renal
CCRF-CEM leukemia = test system: CCRF-CEM leukemia
DLD-1 colon = test system: DLD-1 colon
EKVX NSCLC = test system: EKVX NSCLC
HCC-2998 colon = test system: HCC-2998 colon
HCT-15 colon = test system: HCT-15 colon
HL-60(TB) leukemia = test system: HL-60(TB) leukemia
HOP-18 NSCLC = test system: HOP-18 NSCLC
HOP-62 NSCLC = test system: HOP-62 NSCLC
HOP-92 NSCLC = test system: HOP-92 NSCLC
HT29 colon = test system: HT29 colon
IGROV1 ovarian = test system: IGROV1 ovarian
K-562 leukemia = test system: K-562 leukemia
KM12 colon = test system: KM12 colon
KM20L2 colon = test system: KM20L2 colon
LOX IMVI melanoma = test system: LOX IMVI melanoma
LXFL 529 NSCLC = test system: LXFL 529 NSCLC
M14 melanoma = test system: M14 melanoma
M19-MEL melanoma = test system: M19-MEL melanoma
MALME-3M melanoma = test system: MALME-3M melanoma
MOLT-4 leukemia = test system: MOLT-4 leukemia
NCI-H23 lung = test system: NCI-H23 lung
NCI-H460 lung = test system: NCI-H460 lung
NCI-H522 lung = test system: NCI-H522 lung
OVCAR-3 ovarian = test system: OVCAR-3 ovarian
OVCAR-4 ovarian = test system: OVCAR-4 ovarian
OVCAR-5 ovarian = test system: OVCAR-5 ovarian
OVCAR-8 ovarian = test system: OVCAR-8 ovarian
RXF 393 renal = test system: RXF 393 renal
SF-295 CNS = test system: SF-295 CNS
SF-539 CNS = test system: SF-539 CNS
SK-MEL-2 melanoma = test system: SK-MEL-2 melanoma
SK-MEL-28 melanoma = test system: SK-MEL-28 melanoma
SK-MEL-5 melanoma = test system: SK-MEL-5 melanoma
SK-OV-3 ovarian = test system: SK-OV-3 ovarian
SN12C renal = test system: SN12C renal
SNB-75 CNS = test system: SNB-75 CNS
SNB-78 CNS = test system: SNB-78 CNS
SR leukemia = test system: SR leukemia
SW-620 colon = test system: SW-620 colon
TK-10 renal = test system: TK-10 renal
U251 CNS = test system: U251 CNS
UACC-257 melanoma = test system: UACC-257 melanoma
UACC-62 melanoma = test system: UACC-62 melanoma
UO-31 renal = test system: UO-31 renal
XF 498 CNS = test system: XF 498 CNS
786-0 renal = test system: 786-0 renal
A498 renal = test system: A498 renal
CAKI-1 renal = test system: CAKI-1 renal
COLO 205 colon = test system: COLO 205 colon
DMS 114 small cell lung = test system: DMS 114 small cell lung
DMS 273 small cell lung = test system: DMS 273 small cell lung
HCT-116 colon = test system: HCT-116 colon
SF-268 CNS = test system: SF-268 CNS
SNB-19 CNS = test system: SNB-19 CNS
NCI-H226 lung = test system: NCI-H226 lung
RPMI-8226 leukemia = test system: RPMI-8226 leukemia

OCc1nnn2c1CCC2
TGI (A549 NSCLC): > 100 µM
TGI (ACHN renal): > 100 µM
TGI (CCRF-CEM leukemia): > 100 µM
TGI (DLD-1 colon): > 100 µM
TGI (EKVX NSCLC): > 100 µM
TGI (HCC-2998 colon): > 100 µM
TGI (HCT-15 colon): > 100 µM
TGI (HL-60(TB) leukemia): > 100 µM
TGI (HOP-18 NSCLC): > 100 µM
TGI (HOP-62 NSCLC): > 100 µM
TGI (HOP-92 NSCLC): > 100 µM
TGI (HT29 colon): > 100 µM
TGI (IGROV1 ovarian): > 100 µM
TGI (K-562 leukemia): > 100 µM
TGI (KM12 colon): > 100 µM
TGI (KM20L2 colon): > 100 µM
TGI (LOX IMVI melanoma): > 100 µM
TGI (LXFL 529 NSCLC): > 100 µM
TGI (M14 melanoma): > 100 µM
TGI (M19-MEL melanoma): > 100 µM
TGI (MALME-3M melanoma): > 100 µM
TGI (MOLT-4 leukemia): > 100 µM
TGI (NCI-H23 lung): > 100 µM
TGI (NCI-H460 lung): > 100 µM
TGI (NCI-H522 lung): > 100 µM
TGI (OVCAR-3 ovarian): > 100 µM
TGI (OVCAR-4 ovarian): > 100 µM
TGI (OVCAR-5 ovarian): > 100 µM
TGI (OVCAR-8 ovarian): > 100 µM
TGI (RXF 393 renal): > 100 µM
TGI (SF-295 CNS): > 100 µM
TGI (SF-539 CNS): > 100 µM
TGI (SK-MEL-2 melanoma): > 100 µM
TGI (SK-MEL-28 melanoma): > 100 µM
TGI (SK-MEL-5 melanoma): > 100 µM
TGI (SK-OV-3 ovarian): > 100 µM
TGI (SN12C renal): > 100 µM
TGI (SNB-75 CNS): > 100 µM
TGI (SNB-78 CNS): > 100 µM
TGI (SR leukemia): > 100 µM
TGI (SW-620 colon): > 100 µM
TGI (TK-10 renal): > 100 µM
TGI (U251 CNS): > 100 µM
TGI (UACC-257 melanoma): > 100 µM
TGI (UACC-62 melanoma): > 100 µM
TGI (UO-31 renal): > 100 µM
TGI (XF 498 CNS): > 100 µM

COc1cc(Nc2cnc3cc(N)ccc3n2)cc(OC)c1OC
TGI (786-0 renal): > 100 µM
TGI (A498 renal): > 100 µM
TGI (A549 NSCLC): > 100 µM
TGI (ACHN renal): > 100 µM
TGI (CAKI-1 renal): > 100 µM
TGI (CCRF-CEM leukemia): > 100 µM
TGI (COLO 205 colon): > 100 µM
TGI (DLD-1 colon): > 100 µM
TGI (DMS 114 small cell lung): > 100 µM
TGI (DMS 273 small cell lung): 28.1 µM
TGI (EKVX NSCLC): > 100 µM
TGI (HCC-2998 colon): > 100 µM
TGI (HCT-116 colon): > 100 µM
TGI (HCT-15 colon): > 100 µM
TGI (HL-60(TB) leukemia): > 100 µM
TGI (HOP-18 NSCLC): > 100 µM
TGI (HOP-62 NSCLC): > 100 µM
TGI (HOP-92 NSCLC): > 100 µM
TGI (HT29 colon): > 100 µM
TGI (IGROV1 ovarian): > 100 µM
TGI (K-562 leukemia): > 100 µM
TGI (KM12 colon): > 100 µM
TGI (KM20L2 colon): > 100 µM
TGI (LOX IMVI melanoma): > 100 µM
TGI (LXFL 529 NSCLC): > 100 µM
TGI (M14 melanoma): > 100 µM
TGI (M19-MEL melanoma): > 100 µM
TGI (MALME-3M melanoma): > 100 µM
TGI (MOLT-4 leukemia): > 100 µM
TGI (NCI-H23 lung): > 100 µM
TGI (NCI-H460 lung): > 100 µM
TGI (NCI-H522 lung): > 100 µM
TGI (OVCAR-3 ovarian): > 100 µM
TGI (OVCAR-4 ovarian): > 100 µM
TGI (OVCAR-5 ovarian): > 100 µM
TGI (OVCAR-8 ovarian): > 100 µM
TGI (SF-268 CNS): > 100 µM
TGI (SF-295 CNS): > 100 µM
TGI (SF-539 CNS): > 100 µM
TGI (SK-MEL-2 melanoma): > 100 µM
TGI (SK-MEL-28 melanoma): > 100 µM
TGI (SK-MEL-5 melanoma): > 100 µM
TGI (SK-OV-3 ovarian): > 100 µM
TGI (SN12C renal): > 100 µM
TGI (SNB-19 CNS): > 100 µM
TGI (SNB-75 CNS): > 100 µM
TGI (SR leukemia): > 100 µM
TGI (SW-620 colon): > 100 µM
TGI (TK-10 renal): > 100 µM
TGI (U251 CNS): > 100 µM
TGI (UACC-257 melanoma): > 100 µM
TGI (UACC-62 melanoma): > 100 µM
TGI (UO-31 renal): > 100 µM
TGI (XF 498 CNS): > 100 µM

CCOC(=O)COc1ccc(OCC(=O)OCC)c2c1C(=O)CCCC2=O
TGI (786-0 renal): > 100 µM
TGI (A549 NSCLC): > 100 µM
TGI (ACHN renal): > 100 µM
TGI (CCRF-CEM leukemia): > 100 µM
TGI (COLO 205 colon): > 100 µM
TGI (DLD-1 colon): > 100 µM
TGI (DMS 114 small cell lung): > 100 µM
TGI (DMS 273 small cell lung): > 100 µM
TGI (EKVX NSCLC): > 100 µM
TGI (HCC-2998 colon): > 100 µM
TGI (HCT-116 colon): > 100 µM
TGI (HCT-15 colon): > 100 µM
TGI (HL-60(TB) leukemia): > 100 µM
TGI (HOP-18 NSCLC): > 100 µM
TGI (HOP-62 NSCLC): > 100 µM
TGI (HOP-92 NSCLC): > 100 µM
TGI (HT29 colon): > 100 µM
TGI (IGROV1 ovarian): > 100 µM
TGI (K-562 leukemia): > 100 µM
TGI (KM12 colon): > 100 µM
TGI (KM20L2 colon): > 100 µM
TGI (LOX IMVI melanoma): > 100 µM
TGI (LXFL 529 NSCLC): > 100 µM
TGI (M14 melanoma): > 100 µM
TGI (M19-MEL melanoma): > 100 µM
TGI (MALME-3M melanoma): > 100 µM
TGI (MOLT-4 leukemia): > 100 µM
TGI (NCI-H226 lung): > 100 µM
TGI (NCI-H23 lung): > 100 µM
TGI (NCI-H460 lung): > 100 µM
TGI (NCI-H522 lung): > 100 µM
TGI (OVCAR-3 ovarian): > 100 µM
TGI (OVCAR-5 ovarian): > 100 µM
TGI (OVCAR-8 ovarian): > 100 µM
TGI (RPMI-8226 leukemia): > 100 µM
TGI (RXF 393 renal): > 100 µM
TGI (SF-268 CNS): > 100 µM
TGI (SF-295 CNS): > 100 µM
TGI (SF-539 CNS): > 100 µM
TGI (SK-MEL-2 melanoma): > 100 µM
TGI (SK-MEL-28 melanoma): > 100 µM
TGI (SK-MEL-5 melanoma): 0.846 µM
TGI (SK-OV-3 ovarian): > 100 µM
TGI (SN12C renal): > 100 µM
TGI (SNB-19 CNS): > 100 µM
TGI (SNB-75 CNS): > 100 µM
TGI (SR leukemia): > 100 µM
TGI (SW-620 colon): > 100 µM
TGI (TK-10 renal): > 100 µM
TGI (U251 CNS): > 100 µM
TGI (UACC-257 melanoma): > 100 µM
TGI (UACC-62 melanoma): > 100 µM
TGI (UO-31 renal): > 100 µM
TGI (XF 498 CNS): > 100 µM
